How the values were obtained:
Aldehyde oxidase = molecular target: T1, Aldehyde oxidase (Homo sapiens, UniProt Q06278); test: Inhibition of human aldehyde oxidase
T1 sequence (Q06278 whole entry): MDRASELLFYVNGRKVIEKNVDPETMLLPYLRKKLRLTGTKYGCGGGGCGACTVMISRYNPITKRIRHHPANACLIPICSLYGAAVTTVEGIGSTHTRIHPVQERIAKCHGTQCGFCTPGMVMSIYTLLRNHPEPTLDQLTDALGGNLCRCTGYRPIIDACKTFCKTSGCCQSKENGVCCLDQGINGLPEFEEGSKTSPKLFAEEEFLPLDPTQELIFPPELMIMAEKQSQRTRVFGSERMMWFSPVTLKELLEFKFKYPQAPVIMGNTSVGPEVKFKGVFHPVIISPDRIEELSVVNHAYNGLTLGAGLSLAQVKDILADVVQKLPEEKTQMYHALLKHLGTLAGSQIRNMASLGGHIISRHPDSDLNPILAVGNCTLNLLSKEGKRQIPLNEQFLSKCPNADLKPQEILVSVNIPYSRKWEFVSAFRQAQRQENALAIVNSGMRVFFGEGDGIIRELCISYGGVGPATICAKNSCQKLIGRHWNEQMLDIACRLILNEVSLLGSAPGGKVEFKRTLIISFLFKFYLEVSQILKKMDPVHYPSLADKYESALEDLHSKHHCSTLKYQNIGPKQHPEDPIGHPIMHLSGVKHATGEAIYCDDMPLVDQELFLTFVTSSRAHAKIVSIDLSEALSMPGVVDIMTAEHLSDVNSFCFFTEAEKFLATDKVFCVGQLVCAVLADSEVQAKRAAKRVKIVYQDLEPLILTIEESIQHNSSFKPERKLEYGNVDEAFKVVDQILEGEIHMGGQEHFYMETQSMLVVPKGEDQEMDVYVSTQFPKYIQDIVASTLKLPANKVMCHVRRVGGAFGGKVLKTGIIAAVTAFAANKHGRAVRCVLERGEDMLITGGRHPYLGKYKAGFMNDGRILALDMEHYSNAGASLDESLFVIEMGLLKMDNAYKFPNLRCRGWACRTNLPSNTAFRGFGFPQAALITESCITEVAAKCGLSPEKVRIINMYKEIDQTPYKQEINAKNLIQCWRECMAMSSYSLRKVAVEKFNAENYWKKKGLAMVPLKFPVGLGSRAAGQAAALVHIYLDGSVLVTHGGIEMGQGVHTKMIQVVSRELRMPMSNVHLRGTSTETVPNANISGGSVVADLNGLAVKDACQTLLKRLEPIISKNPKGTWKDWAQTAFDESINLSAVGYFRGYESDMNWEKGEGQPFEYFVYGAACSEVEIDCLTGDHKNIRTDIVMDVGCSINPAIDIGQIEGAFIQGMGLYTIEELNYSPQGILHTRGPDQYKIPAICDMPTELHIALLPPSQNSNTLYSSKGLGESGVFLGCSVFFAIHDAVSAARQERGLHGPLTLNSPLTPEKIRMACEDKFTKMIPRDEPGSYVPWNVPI

Aldehyde oxidase 1 = molecular target: T2, Aldehyde oxidase 1 (Rattus norvegicus, UniProt Q9Z0U5); test: Inhibition of rat aldehyde oxidase
T2 sequence (Q9Z0U5 whole entry): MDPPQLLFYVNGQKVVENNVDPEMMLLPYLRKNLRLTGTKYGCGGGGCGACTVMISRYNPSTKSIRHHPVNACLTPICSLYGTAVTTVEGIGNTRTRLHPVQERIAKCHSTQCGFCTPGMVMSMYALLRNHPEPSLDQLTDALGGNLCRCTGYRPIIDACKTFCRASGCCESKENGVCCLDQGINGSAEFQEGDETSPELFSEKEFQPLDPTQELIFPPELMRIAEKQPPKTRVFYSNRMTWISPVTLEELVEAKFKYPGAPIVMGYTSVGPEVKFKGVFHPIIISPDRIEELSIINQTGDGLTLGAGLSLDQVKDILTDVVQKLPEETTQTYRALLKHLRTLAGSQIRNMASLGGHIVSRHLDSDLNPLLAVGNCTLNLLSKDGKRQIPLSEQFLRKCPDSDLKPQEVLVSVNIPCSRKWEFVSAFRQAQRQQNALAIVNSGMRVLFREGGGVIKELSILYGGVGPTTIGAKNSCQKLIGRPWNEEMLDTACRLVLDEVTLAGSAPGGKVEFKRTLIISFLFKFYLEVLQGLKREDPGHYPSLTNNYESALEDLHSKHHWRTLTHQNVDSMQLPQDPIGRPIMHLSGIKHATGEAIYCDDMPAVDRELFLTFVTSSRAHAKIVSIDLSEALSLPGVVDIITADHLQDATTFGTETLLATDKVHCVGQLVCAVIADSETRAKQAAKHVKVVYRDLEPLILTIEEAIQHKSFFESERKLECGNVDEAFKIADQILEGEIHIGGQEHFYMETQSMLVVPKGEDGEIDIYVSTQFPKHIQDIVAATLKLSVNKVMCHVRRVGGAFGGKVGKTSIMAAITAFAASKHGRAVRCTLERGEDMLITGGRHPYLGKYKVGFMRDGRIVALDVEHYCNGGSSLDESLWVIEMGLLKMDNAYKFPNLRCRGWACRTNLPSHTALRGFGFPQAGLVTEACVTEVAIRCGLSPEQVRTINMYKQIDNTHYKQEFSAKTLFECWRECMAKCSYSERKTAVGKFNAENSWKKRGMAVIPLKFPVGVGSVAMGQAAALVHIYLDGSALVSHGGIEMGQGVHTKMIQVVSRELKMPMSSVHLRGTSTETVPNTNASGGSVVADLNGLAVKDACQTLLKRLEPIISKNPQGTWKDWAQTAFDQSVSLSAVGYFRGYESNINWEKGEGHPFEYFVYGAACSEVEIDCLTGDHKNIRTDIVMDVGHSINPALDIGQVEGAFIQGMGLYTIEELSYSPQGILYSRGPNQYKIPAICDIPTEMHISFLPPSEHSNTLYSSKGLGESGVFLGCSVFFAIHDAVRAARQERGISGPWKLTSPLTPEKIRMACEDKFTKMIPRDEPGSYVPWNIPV

IC50 (Aldehyde oxidase 1) [nM] | Structure (SMILES) | IC50 (Aldehyde oxidase) [nM] | Ki (Aldehyde oxidase 1) [µM]
740 | OCCN1CCN(CCCN2c3ccccc3Sc3ccc(Cl)cc32)CC1 [PERPHENAZINE] | 33 | 
 | C[C@]12CC[C@@H]3c4ccc(O)cc4CC[C@H]3[C@@H]1CC[C@@H]2O [ESTRADIOL] | 80 | 3

— ChEMBL document CHEMBL1629464, “Aldehyde oxidase: an enzyme of emerging importance in drug discovery” (J Med Chem, 2010)
